Measured values as given in patent US20230112418A1, “COMPOUND AND RADIOACTIVE LABELING COMPOUND” (NIHON MEDI-PHYSICS CO., LTD., priority 2020, published 2023).

Key:
[1] = tested on: LNCaP tumor transplanted mice; assay: SPECT/CT using LNCaP tumor transplanted mice; type: in vivo; settings: FIG. 7
Protocol: A saline solution (1.9 to 3.0 MBq, 150 μL) of [^111In]In-PSMA-DA1 or [^111In]In-PSMA-DB was injected into each of the LNCaP tumor transplanted mice generated by the above-described method via the tail vein thereof. SPECT/CT was performed with an FX3300 pre-clinical imaging system manufactured by Gamma Medica-Ideas 24 and 48 hours after the injection. Imaging was performed under isoflurane anesthesia using a pinhole collimator with a diameter of 1.0 mm at a rotation radius of 35 mm, a scan time of 70 seconds, and the number of times of imaging of 32. After SPECT, CT (tube voltage: 60 kV, tube current: 350 μA) was performed. Image reconstruction by a three-dimensional ordered subset expectation maximization method (8 subsets, 5 iterations) was performed on projection data of SPECT.
Results of SPECT/CT are illustrated in FIG. 7. In FIG. 7, a portion indicated by an arrow is a position where the tumor is present, and a portion indicated by a circle is a position where the kidney is present. The higher the SUV, the amount of radioactivity accumulated is large.

[2] = tested on: PC-3 tumor transplanted mice; assay: In vivo radioactivity distribution using PC-3 tumor transplanted mice
Protocol: Animal experiments were performed in accordance with the guidelines of Kyoto University Animal Experiment Committee. Male CB17/IcrJcl-Prkdc^scid mice were purchased from CLEA Japan, Inc. The animals were raised under 12 h/12 h day/night cycle conditions and freely fed with food and water. LNCaP cells (1.0×10^7 cells/mouse) or PC-3 cells (1.0×10^7 cells/mouse) were suspended in a mixed liquid (1:1,150 μL) of PBS and Matrigel manufactured by Corning Life Sciences Inc., and the suspension was subcutaneously transplanted to the right shoulder of each of the mice under isoflurane anesthesia. Thereafter, the mice were raised for 40 to 60 days.
A saline solution (185 kBq, 100 μL) of [^111In]In-PSMA-DA1 or [^111In]In-PSMA-DB was injected into each of LNCaP or PC-3 tumor transplanted mice via the tail vein thereof (n=3 in each group). The mice were euthanized 1, 4, 24, 48, 96, and 192 hours after the injection. Thereafter, blood and organs were collected, and the mass and radioactivity of each of the organs were measured.
A result thereof is indicated as a value (% ID/g) obtained by dividing the percentage (% ID) of the amount of radioactivity with respect to the amount of injected radioactivity (injected dose) by the mass of blood or the mass of an organ (g).

O=C([O-])CN1CCN(C(CCC(=O)NCCCC[C@H](NC(=O)N[C@@H](CCC(=O)O)C(=O)O)C(=O)O)C(=O)[O-])CCN(CC(=O)[O-])CCN(C(CCC(=O)Nc2ccccc2)C(=O)[O-])CC1.[111In+3] (stereo partly drawn) [[^111In]In-PSMA-DB]
SPECT/CT radioactivity accumulation in the LNCaP tumor (in words) ([1]; 24 and 48 hours after the injection): radioactivity accumulation was also observed in the LNCaP tumor
SPECT/CT kidney versus tumor radioactivity (in words) [1]: the accumulation was lower than that in the kidney
Accumulation: Blood ([2]; 1 hour after injection): 1.92 ± 0.27 % ID/g
Accumulation: Brain ([2]; 1 hour after injection): 0.06 ± 0.00 % ID/g
Accumulation: Heart ([2]; 1 hour after injection): 0.49 ± 0.05 % ID/g
Accumulation: Intestinal ([2]; 1 hour after injection): 0.48 ± 0.04 % ID/g
Accumulation: Kidney ([2]; 1 hour after injection): 49.5 ± 12.6 % ID/g
Accumulation: Liver ([2]; 1 hour after injection): 0.62 ± 0.03 % ID/g
Accumulation: Lung ([2]; 1 hour after injection): 1.36 ± 0.23 % ID/g
Accumulation: Muscle ([2]; 1 hour after injection): 0.21 ± 0.08 % ID/g
Accumulation: PC-3 tumor ([2]; 1 hour after injection): 0.61 ± 0.06 % ID/g
Accumulation: Pancreas ([2]; 1 hour after injection): 0.44 ± 0.06 % ID/g
Accumulation: Spleen ([2]; 1 hour after injection): 2.57 ± 0.39 % ID/g
Accumulation: Stomach ([2]; 1 hour after injection): 0.12 ± 0.04 % ID
Accumulation in the PC-3 tumor compared with the LNCaP tumor (in words) ([2]; same time point): lower than accumulation thereof in the LNCaP tumor at the same time point
